This note sets out measurements from US5594012A, “Amino acid derivatives and anti-active oxygen agents” (Ajinomoto Co., Inc., priority 1992, dated 1997).

The first test relates to lipid peroxidation in murine brain homogenate. Kind of test: Inhibitory effects on metal ion-induced lipid peroxidation (murine brain homogenate). Format: biochemical, murine (C57 black mouse). The following applies: 1 mM test compound; 100 μM ammonium iron (II) sulphate; 37° C., 30 minutes; pH 7.2 to 7.8. The protocol:
Test for Inhibitory Effects on Metal Ion-induced Lipid Peroxidation
(§1) The test was carried out according to the method described in Method in Enzymol., Vol. 52, page 302, 1978. A C57 black mouse was killed by cervical dislocation, and the whole brain extracted from the dissected head was washed with 20 mM phosphate buffer (hereinafter referred to as "PBS-2"). Then, the brain was added with PBS-2 in an amount of 19 times its wet weight, and the mixture was disrupted and homogenized with a homogenizer "Polytron" (manufactured by Kinematica). The thus prepared 5% solution of the murine brain homogenate in PBS-2 was diluted 1:5 with fresh PBS-2. To 800 μl of the resulting 1% solution of the murine brain homogenate in PBS-2 (protein content: 0.8 to 1.0 mg/ml) were successively added 100 μl of a PBS-2 solution of each of the test compounds shown in Table 7 below and 100 μl of an aqueous solution of ammonium iron (II) sulphate. The final concentration of the test compounds and ammonium iron (II) sulphate were adjusted to be 1 mM and 100 μM, respectively. If test compounds were not soluble in PBS-2 alone, an aqueous sodium hydroxide solution or DMSO was added. The pH of the solution was adjusted to 7.2 to 7.8.
The solution after heated at 37° C. for 30 minutes was added with 2.0 ml of an aqueous solution of thiobarbituric acid/trichloroacetic acid/hydrochloric acid, and the mixture was heated in a boiling water bath for 15 minutes. After ice-cooling, the solution was extracted with 1.0 ml of 1-butanol to prepare a sample for determining the peroxide lipid in the same way as described in Test Example 1.
(§2) [formula] A1 : Absorbance when a test compound was added. A2 : Absorbance when a test compound was not added.
A3 : Absorbance when a test compound was not added and heating at 37° C. for 30 minutes was not carried out.
`O=C(O)C(Cc1c[nH]cn1)N=Cc1cc(Cl)ccc1O` (stereo not shown) [Synthesis Example 61]: the “% Inhibition of metal ion-induced lipid peroxidation” value is 45%. On the same count and under the same terms, next, `CC(C)CC(N=Cc1c(O)ccc2ccccc12)C(=O)O` (stereo not shown) [Synthesis Example 38]: 74%; `O=C(O)C(CO)N=Cc1cc([N+](=O)[O-])ccc1O` (stereo not shown) [Synthesis Example 59]: 11%. As for `COc1cccc(C=NC(Cc2c[nH]cn2)C(=O)O)c1O` (stereo not shown) [Synthesis Example 63], the “% Inhibition of metal ion-induced lipid peroxidation” value was 60%. Same read-out and setting: next, `CC(N=Cc1c(O)ccc2ccccc12)C(=O)O` (stereo not shown) [Synthesis Example 36]: 80%. Regarding `Oc1ccc2ccccc2c1C=NCCc1c[nH]c2ccccc12` [Synthesis Example 56], the “% Inhibition of metal ion-induced lipid peroxidation” value was 57%. On the same count and under the same terms, the value for `O=C(O)C(Cc1ccc(O)c(O)c1)N=Cc1c(O)ccc2ccccc12` (stereo not shown) [Synthesis Example 32] was 83%.

With `CC(C)C(CO)N=Cc1c(O)ccc2ccccc12` (stereo not shown) [Synthesis Example 37], the “% Inhibition of metal ion-induced lipid peroxidation” value is 30%. Still for that read-out and setting: next, `NC(=O)CC(N=Cc1c(O)ccc2ccccc12)C(=O)O` (stereo not shown) [Synthesis Example 44]: 90%; `O=C(O)C(Cc1c[nH]cn1)N=Cc1cc(Br)ccc1O` (stereo not shown) [Synthesis Example 62]: 45%; `COC(=O)C(Cc1ccccc1)NC(=O)C(CC(=O)O)N=Cc1c(O)ccc2ccccc12` (stereo not shown) [Synthesis Example 67]: 38%. Take `CCC(C)C(N=Cc1c(O)ccc2ccccc12)C(=O)O` (stereo not shown) [Synthesis Example 39]: the “% Inhibition of metal ion-induced lipid peroxidation” value turned out to be 50%. The same measure, in the same setting: the value for `CC(C)C(N=Cc1cc(Cl)ccc1O)C(=O)O` (stereo not shown) [Synthesis Example 64] was 60%; that for `O=S(=O)(O)CCN=Cc1c(O)ccc2ccccc12` [Synthesis Example 65] was 73%; that for `O=C(O)C(Cc1ccccc1)N=Cc1c(O)ccc2ccccc12` (stereo not shown) [Synthesis Example 54] was 83%. Take `COC(=O)CCC(N=Cc1c(O)ccc2ccccc12)C(=O)OC` (stereo not shown) [Synthesis Example 49]: the “% Inhibition of metal ion-induced lipid peroxidation” value is 81%. Still for that read-out and setting: next, `COC(=O)C(Cc1c[nH]cn1)N=Cc1c(O)ccc2ccccc12` (stereo not shown) [Synthesis Example 45]: 85%; `NC(=O)CCC(N=Cc1c(O)ccc2ccccc12)C(=O)O` (stereo not shown) [Synthesis Example 51]: 84%; `COC(=O)C(CO)N=Cc1c(O)ccc2ccccc12` (stereo not shown) [Synthesis Example 40]: 88%. `O=C(O)CN=Cc1c(O)ccc2ccccc12` [Synthesis Example 34]: the “% Inhibition of metal ion-induced lipid peroxidation” value came to 57%.

For the compound `CC(O)C(N=Cc1c(O)ccc2ccccc12)C(=O)O` (stereo not shown) [Synthesis Example 41], the “% Inhibition of metal ion-induced lipid peroxidation” value is given as 79%.

Consider `O=C(O)C(Cc1c[nH]c2ccccc12)N=Cc1c(O)ccc2ccccc12` (stereo not shown) [Synthesis Example 55], for which the “% Inhibition of metal ion-induced lipid peroxidation” value is given as 87%.

As to `CSCCC(N=Cc1c(O)ccc2ccccc12)C(=O)O` (stereo not shown) [Synthesis Example 42], the “% Inhibition of metal ion-induced lipid peroxidation” value is recorded as 86%. The same measure, in the same setting: the value for `O=C(O)C(CO)N=Cc1cc(Br)ccc1O` (stereo not shown) [Synthesis Example 58] was 40%. Same read-out and setting: next, `CCC(C)C(N=Cc1c(CO)cnc(C)c1O)C(=O)O` (stereo not shown) [Synthesis Example 72]: 14%. Still for that read-out and setting: the value for `OCC(Cc1c[nH]cn1)N=Cc1c(O)ccc2ccccc12` (stereo not shown) [Synthesis Example 33] was 95%; that for `O=C(CCC(N=Cc1c(O)ccc2ccccc12)C(=O)O)NO` (stereo not shown) [Synthesis Example 50] was 85%; that for `O=C(O)CC(N=Cc1c(O)ccc2ccccc12)C(=O)O` (stereo not shown) [Synthesis Example 43] was 40%.

With `Oc1ccc2ccccc2c1C=NCCc1c[nH]cn1` [Synthesis Example 46], the “% Inhibition of metal ion-induced lipid peroxidation” value was 80%. Same read-out and setting: the value for `O=C(O)C(CO)N=Cc1cc(Cl)ccc1O` (stereo not shown) [Synthesis Example 57] was 44%; that for `O=C(O)CNC(=O)CN=Cc1c(O)ccc2ccccc12` [Synthesis Example 66] was 20%; that for `NC(=O)CN=Cc1c(O)ccc2ccccc12` [Synthesis Example 35] was 16%.

The test system is the same in the next test. As to the kind of experiment: Inhibitory effects on lipid peroxidation (murine brain homogenate). It is filed as biochemical, murine (C57 black mouse). The following applies: 30 μM test compound; no added iron; 37° C., 60 minutes; pH 7.2 to 7.8. The protocol:
as §1
Test for Inhibitory Effects on Lipid Peroxidation
To 900 μl of a 5% solution of the murine brain homogenate in PBS-2 prepared in the same way as described in Test Example 3 was added 100 μl of a PBS-2 solution of each of the test compounds shown in Table 8 below. The final concentration of the test compounds was adjusted to be 30 μM. If test compounds were not soluble in PBS-2 alone, an aqueous solution of sodium hydroxide or DMSO was added. The pH of the solution was adjusted to 7.2 to 7.8.
The solution after heated at 37° C. for 60 minutes was added with 1.0 ml of an aqeuous solution of thiobarbituric acid/trichloroacetic acid/hydrochloric acid, and the mixture was heated in a boiling water bath for 15 minutes. After ice-cooling, the solution was extracted with 2.0 ml of 1-butanol to prepare a sample for determining the lipid peroxide in the same way as described in Test Example 1. […] [formula] A4 : Absorbance when a test compound was added. A5 : Absorbance when a test compound was not added.
A6 : Abosrbance when a test compound was not added and heating at 37° C. for […] was not carried out.
Turning to `Cc1ncc(CO)c(CNC(C)C(=O)O)c1O` (stereo not shown) [Synthesis Example 17], the “% Inhibition of lipid peroxidation” value came out at 56%. Regarding `Cc1ncc(CO)c(CNC(Cc2ccc(O)cc2)C(=O)O)c1O` (stereo not shown) [Synthesis Example 26], the “% Inhibition of lipid peroxidation” value was found to be 39%.

On to `Cc1ncc(CO)c(CNC(CC(=O)O)C(=O)O)c1O` (stereo not shown) [Synthesis Example 20], for which the “% Inhibition of lipid peroxidation” value stood at 91%. Still for that read-out and setting: next, `Cc1ncc(CO)c(CNC(C(=O)O)C(C)O)c1O` (stereo not shown) [Synthesis Example 19]: 59%. Still for that read-out and setting: next, `Cc1ncc(CO)c(CNC(Cc2c[nH]cn2)C(N)=O)c1O` (stereo not shown) [Synthesis Example 23]: 39%.

A further test relates to lipid peroxidation in homogenate of murine swiss 3T3 cells. Kind of test: Inhibitory effects on UV-induced lipid peroxidation (homogenate of murine swiss 3T3 cells). Format: biochemical. The following applies: 1 mM test compound; UVB 0.4 mW/cm^2, 90 min; pH 7.2 to 7.8; TBA, 535 nm. The protocol: Test for Inhibitory Effects on UV-induced Lipid Peroxidation
The test was carried out on the basis of the methods described in Biochim. Biophys. […] Namely, 12 μl of an aqueous sodium hydroxide solution of each of the test compounds shown in Table 5 below was added to 1.2 ml of a homogenate of murine swiss 3T3 cells (i.e. a kind of murine skin cells) prepared by a conventional method in 20 mM phosphate buffer (protein content: 1.5 to 1.8 mg/ml). The final concentration of the test compounds was adjusted to be 1 mM and the pH of the solution was adjusted to 7.2 to 7.8. If test compounds were not soluble in an aqueous sodium hydroxide solution, they were dissolved in N,N-dimethyl sulfoxide (DMSO).
This solution (1.1 ml) was irradiated with UV rays (0.4 mW/cm^2, 90 min.) using a UVB lamp "EB-280C/J" (manufactured by Spectronics). To an aliquot (1.0 ml) of this solution were successively added 0.2 ml of an aqueous solution of sodium dodecyl sulfate and 1.0 ml of an aqueous solution of thiobarbituric acid/trichloroacetic acid/hydrochloric acid, and the mixed solution was heated in a boiling water bath for 15 minutes. After ice-cooling, the solution was extracted with 1.0 ml of 1-butanol to prepare a sample for determining peroxide lipid as absorbance at a wavelength of 535 nm using a spectrophotometer "Model 320" (manufactured by Hitachi).
as §2
A3 : Absorbance when a test compound was not added and UV rays were not irradiated.
Turning to `O=C(O)CCNCc1ccccc1O` [Synthesis Example 12], the “% Inhibition of UV-induced lipid peroxidation” value is 29%. Same read-out and setting: the value for `OCCNCc1ccccc1O` [Synthesis Example 14] was 45%; that for `NC(=O)CNCc1ccccc1O` [Synthesis Example 11] was 77%. On the same count and under the same terms, the value for `O=C(O)C(Cc1ccccc1)NCc1ccccc1O` (stereo not shown) [Synthesis Example 7] was 48%; that for `CC(C)C(NCc1ccccc1O)C(=O)O` (stereo not shown) [Synthesis Example 8] was 60%; that for `Oc1ccccc1CNCCc1c[nH]cn1` [Synthesis Example 15] was 51%. For `O=C(O)CNCc1ccccc1O` [Synthesis Example 9], the “% Inhibition of UV-induced lipid peroxidation” value is reported as 60%.

Consider `O=C(O)CN(CCN(CC(=O)O)CC(=O)O)CC(=O)O` [EDTA, reference compound], for which the “% Inhibition of UV-induced lipid peroxidation” value turned out to be 34%. Turning to `CC(NCc1ccccc1O)C(=O)O` (stereo not shown) [Synthesis Example 6], the “% Inhibition of UV-induced lipid peroxidation” value was determined as 66%.

Take `CC(O)C(NCc1ccccc1O)C(=O)O` (stereo not shown) [Synthesis Example 10]: the “% Inhibition of UV-induced lipid peroxidation” value is given as 56%. The same measure, in the same setting: the value for `O=S(=O)(O)CCNCc1ccccc1O` [Synthesis Example 13] was 53%.

As for `O=C(O)CCC(NCc1ccccc1O)C(=O)O` (stereo not shown) [Synthesis Example 5], the “% Inhibition of UV-induced lipid peroxidation” value worked out at 52%.
